Assay results published in patent US11980607B2, “Methods of treating malignant lymphoproliferative disorders” (Actuate Therapeutics Inc., priority 2018, dated 2024).

What was measured:
[1] = tested on: Granta-519; experiment: Apoptosis assay (Annexin V/PI), cell survival; assay type: cell-based; conditions: Homo sapiens; Granta-519 (MCL), 48 hours
Procedure: (§1) Cells were seeded at 5×10^5 cells/well in 24 well plates, and incubated with 9-ING-41 at indicated concentrations for 48 hours. The cells were then stained with FITC conjugated Annexin V (Life Technologies) and Propidium Iodide followed by analysis on a BD FACS Calibur flow cytometer.
(§2) The IC50S of 9-ING-41 on cell survival and proliferation was calculated using an on-line IC50 calculation tool (https://www.aatbio.com/tools/ic50-calculator/).
(§3) Given that both GSK3α and GSK3β are overexpressed in lymphoma cells, and that both enzymes are implicated in multiple signaling pathways critical for cell functions, whether GSK3α and GSK3β are functionally supporting the survival and proliferation of lymphoma cells was examined. […] The inhibitory concentrations of 9-ING-41 at half of the maximal effect (IC50) on cell survival of various lymphoma cell lines was calculated (Table 1).

[2] = tested on: Jeko; experiment: Apoptosis assay (Annexin V/PI), cell survival; assay type: cell-based; conditions: Homo sapiens; Jeko (MCL), 48 hours
Procedure: as §1, §2, §3

[3] = tested on: Karpas-299; experiment: Apoptosis assay (Annexin V/PI), cell survival; assay type: cell-based; conditions: Homo sapiens; Karpas-299 (TCL), 48 hours
Procedure: as §1, §2, §3

[4] = tested on: Mino; experiment: Apoptosis assay (Annexin V/PI), cell survival; assay type: cell-based; conditions: Homo sapiens; Mino (MCL), 48 hours
Procedure: as §1, §2, §3

[5] = tested on: MyLa; experiment: Apoptosis assay (Annexin V/PI), cell survival; assay type: cell-based; conditions: Homo sapiens; MyLa (TCL), 48 hours
Procedure: as §1, §2, §3

[6] = tested on: OCI-LY19; experiment: Apoptosis assay (Annexin V/PI), cell survival; assay type: cell-based; conditions: Homo sapiens; OCI-LY19 (DLBCL), 48 hours
Procedure: as §1, §2, §3

[7] = tested on: OCI-LY1; experiment: Apoptosis assay (Annexin V/PI), cell survival; assay type: cell-based; conditions: Homo sapiens; OCI-LY1 (DLBCL), 48 hours
Procedure: as §1, §2, §3

[8] = tested on: OCI-Ly3; experiment: Apoptosis assay (Annexin V/PI), cell survival; assay type: cell-based; conditions: Homo sapiens; OCI-Ly3 (DLBCL), 48 hours
Procedure: as §1, §2, §3

[9] = tested on: SU-DHL6; experiment: Apoptosis assay (Annexin V/PI), cell survival; assay type: cell-based; conditions: Homo sapiens, SU-DHL-6; SU-DHL6 (DLBCL), 48 hours
Procedure: as §1, §2, §3

[10] = tested on: SeAx; experiment: Apoptosis assay (Annexin V/PI), cell survival; assay type: cell-based; conditions: Homo sapiens; SeAx (TCL), 48 hours
Procedure: as §1, §2, §3

[11] = tested on: NF-κB, DNA damage and apoptotic pathways in lymphoma cell lines; experiment: Luminex analysis of NF-κB, DNA damage and apoptotic pathway signaling; assay type: cell-based; conditions: 1 μM, 48 hours
Text: Signaling changes in NF-κB [MILLIPLEXMAP NF-κB Signaling Magnetic Bead Kit 6-plex Kit, EMD Millipore, analytes: c-MYC, FADD (Ser194), IκBα (Ser32), IKKα/β (Ser177/Ser181), NF-κB (Ser536), TNFR1], DNA damage [MILLIPLEX MAP DNA Damage/Genotoxicity Magnetic Bead Panel, EMD Millipore, analytes: ATR (total), Chk1 (Ser345), Chk2 (Thr68), H2A.X (Ser139), MDM2 (total), p21 (Total), p53 (Ser15)], and apoptotic pathways [Bio-plex pro RBM apoptosis panel 2 and 3, Bio-Rad, analytes: Bad, Bax/Bcl-2 dimer, Bcl-xL, Bim, Mcl-1, active caspase 3, Bcl-xL/Bak dimer, Mcl-1/Bak dimer, survivin] associated with 1 μM 9-ING-41 treatment for 48 hours as compared to no-treatment controls were determined using Luminex multiplex technology with a FLEXMAP 3D instrument, as per manufacturer instructions. Cells were lysed in MILLIPLEX MAP Lysis buffer supplemented with protease inhibitor cocktail (Sigma) and phosphatase inhibitor cocktails 2 and 3 (Sigma) and, after BCA protein determination, 15 μg of protein was added to each well. All samples were run in duplicate and changes in MFI or absolute quantity between 9-ING-41-treated cells and nontreated control were analyzed, and an unpaired t-test was performed to determine statistical significance.

[12] = tested on: TCL and MCL lines; experiment: Apoptosis assay in TCL and MCL lines; assay type: cell-based, human; conditions: low doses, 48 hours
Procedure: (§4) Unstimulated peripheral blood B- and T-lymphocytes isolated from a healthy donor were used as normal control. Pro-apoptotic effect of the GSK3 inhibitor 9-ING-41 in various MCL and TCL lines (A) and DLBCL lines (B). (C) Cell proliferation profile of various lymphoma cell lines upon treatment with 9-ING-41. Results (A-C) are from 3 independent experiments.
as §1, §3

[13] = tested on: TCL and MCL lines; experiment: Thymidine incorporation assay in TCL and MCL lines; assay type: cell-based, human; conditions: 9-ING-41 concentrations as low as 1.0 μM
Procedure: as §4
Cells were seeded at 1×10^4 cells/well in 96 well plates, and incubated with 9-ING-41 at indicated concentrations for 48 hours followed by pulsing with tritium labeled thymidine for overnight before being analyzed for thymidine uptake.
9-ING-41 can specifically induce lymphoma cell apoptosis without affecting normal lymphocytes. The thymidine incorporation assay in the presence or absence of 9-ING-41 was performed to test the role of GSK3 in lymphoma cell proliferation. […] The DLBCL lines required slightly higher concentrations. The IC50 of 9-ING-41 on cell proliferation for various lymphoma cell lines was calculated (Table 1).

[14] = tested on: GSK3β localization in Jeko cells; experiment: Immunofluorescence staining for GSK3β localization; assay type: cell-based, human; conditions: 9-ING-41 treated Jeko cells
Procedure: (B) A close-up (magnification) image of that shown in (A). […] (L) A close-up image of a mitotic cell shown in (K). (M) An overlay image showing the microtubule structure by α-tubulin (red) staining and DNA (in blue). (N) A close-up image of that shown in (M). […] (R) A close-up image of a representative mitotic cell shown in (Q). All other immunostainings of GSK3β and α-Tubulin on cytospin preparations of lymphoma cells were fixed with 4% paraformaldehyde in PBS for 15 min at room temperature followed by permeabilization and the same staining steps as above. The cells were analyzed and imaged on a conventional Zeiss microscope or a Zeiss LSR 780 confocal microscope. To determine the intracellular localization of GSK3β in mitotic cells, GSK3β localization in normal mitotic Jeko cells was analyzed. […] The localization of GSK3β in 9-ING-41 treated Jeko cells (FIG. 8Q-R) was determined.

[15] = tested on: Jeko derived xenograft; experiment: Jeko derived MCL xenograft mouse model; assay type: in vivo; conditions: NSG mice, 40 mg/kg every other day IP, day 17
Text: The images shown were collected at the end of the experiment (day 17). […] An MCL xenograft mouse model was established by subcutaneously injecting NGS mice with Jeko cells expressing the firefly luciferase reporter gene Fluc. NSG (NOD.Cg-PrkdcscidIl2rgtm1Wjl/SzJ) mice used in these experiments were purchased from the Jackson Laboratory (Bar Harbor, Maine). Eight to ten mice of same sex at 8 weeks of age were subcutaneously injected with 5×10^6 Fluc expressing Jeko cells in the right flanks. Tumor engraftment was verified by imaging 4 days after Jeko cell inoculation. […] Tumor volumes were measured by an IVIS Imager (Xenogen, Alameda, CA) 20 minutes after IP injection of 200 ul of 15 mg/ml D-leuciferin (GoldBio, St. Louis, MO) and anesthetized with 2.5% isoflurane. All imaging variables were kept consistent for comparativeness. The experiment terminated when the largest tumor met the size limit of the IACUC protocol.

[16] = tested on: Mantle Cell lymphoma; experiment: Treatment of Mantle Cell Lymphoma in a human; assay type: in vivo; conditions: 3 mg/kg per day, six 21 day cycles
Procedure: A human suffering from Mantle Cell lymphoma is administered 3 mg/kg per day of 9-ING-41 for six 21 day cycles. After treatment, the human's MCL is in remission.

[17] = tested on: T-cell lymphoma (non-Hodgkin's); experiment: Treatment of T-Cell Lymphoma in a human; assay type: in vivo; conditions: 2 mg/kg per day, six 21 day cycles
Procedure: A human suffering from T-cell lymphoma (non-Hodgkin's) is administered 2 mg/kg per day of 9-ING-41 for six 21 day cycles. After treatment, the human's TCL is in remission.

[18] = Xenograft mice, 20 mg/kg intravenous, within 30 minutes; cited from earlier work

Cn1cc(C2=C(c3coc4ccc(F)cc34)C(=O)NC2=O)c2cc3c(cc21)OCO3 [9-ING-41, 3-(5-Fluorobenzofuran-3-yl)-4-(5-methyl-5H-[1,3]dioxolo[4,5-f]indol-7-yl)pyrrole-2,5-dione]
IC50 [1]: 0.77 µM
IC50 [2]: 1.28 µM
IC50 [3]: 3.34 µM
IC50 [4]: 0.55 µM
IC50 [5]: 0.69 µM
IC50 [6]: 2.21 µM
IC50 [7]: 3.05 µM
IC50 [8]: 3.76 µM
IC50 [9]: 1.58 µM
IC50 [10]: 1.6 µM
Total c-MYC levels ([11]; Karpas 422 and TMD8 cell lines): significant reduction
DNA damage signaling, p-H2A.X (Ser139) ([11]; SUDHL-4 and Karpas 422 cell lines, p<0.05): increased
phospho-p53 (Ser15) ([11]; SUDHL-4 and TMD8 cells): significant increase
Reduction in Bcl-x1/Bak dimer expression ([11]; all cell lines except TMD8, p<0.05): ~1.5 fold
Reduction in Mcl-1/Bak dimers ([11]; all lymphoma cell lines except KPUM-UH1, p<0.05): ~2 fold
Active caspase 3 ([11]; all lymphoma cell lines except TMD8): increase in active caspase 3
Reduction in survivin ([11]; all lymphoma cell lines except TMD8, p<0.05): ~2 fold
Apoptosis in TCL and MCL lines [12]: induced apoptosis
Proliferation rate of all TCL and MCL lines [13]: profoundly inhibited
Effect on localization of GSK3β [14]: did not alter the localization of GSK3β
Tumor size and luciferase activity versus control [15]: smaller tumors with much lower luciferase activity
Outcome after treatment [16]: in remission
Outcome after treatment [17]: in remission
9-ING-41 concentration in plasma [18]: around 8 μM
9-ING-41 concentration in the brain [18]: around 40 μM
